# Measured values published in patent US20250276068A1, “PHARMACEUTICAL COMPOSITIONS OF POLYPEPTIDE CONJUGATES AND METHODS OF USES THEREOF” (BEIJING QL BIOPHARMACEUTICAL CO., LTD., priority 2022, published 2025).
# *1 amine or outer side, *2 acyl side, *3 side chain or, on linkers, in order; H or OH if unused. Side-chain parts run from the residue outwards. [ ]: non-standard residue; d: D form. The star is where a group is joined. C18 diacid = O=C(O)CCCCCCCCCCCCCCCCC(=O)*; γGlu = O=C(O)[C@H](CCC(=O)[*:2])N[*:1]; AEEA = NCCOCCOCC(=O)O; Aib = CC(C)(N)C(=O)O
# B1: Molecule 002 (peptide)
# peptide: H[Aib]EGTFTSDVSSYLEGQAAREFIAWLVRGGGGAQPGAQPGAQPGAQPGAQPGAQPGAQPGAQPGAQPGQK([AEEA-AEEA-γGlu-C18 diacid])P
# notes: Mono-acylated GLP-1 polypeptide conjugate; also called 1006
# B2: Molecule 019 (peptide)
# peptide: H[Aib]EGTFTSDVSSYLEEQAAREFIAWLVRGGGGAQPGAQPGAQPGAQPGAQPGAQPGAQPGAQPGAQPGQK([AEEA-AEEA-γGlu-C18 diacid])P
# notes: Mono-acylated GLP-1 polypeptide conjugate; also called 1023
# B3: Molecule 012 (peptide)
# peptide: H[Aib]EGTFTSDVSSYLEEQAAK([AEEA-AEEA-γGlu-C18 diacid])EFIAWLVRGGGGAQPGAQPGAQPGAQPGAQPGAQPGAQPGAQPGAQPGQK([AEEA-AEEA-γGlu-C18 diacid])P
# notes: Double-acylated GLP-1 polypeptide conjugate
# Columns and labels:
# [1] = molecular target: GLP-1 receptor (Homo sapiens, UniProt P43220); conditions: J. Med. Chem. 2015, 58, 7370-7380; cited from earlier work
# [2] = tested on: C57BL/6 mice; assay: Body weight loss in C57 lean mice after single s.c. dose; type: in vivo; conditions: 30 nmol/kg s.c. once
# Experimental: Method: 10 week old male C57BL/6 mice were injected subcutaneously with protein once on Day1. Body weight was measured daily and five animals were used for each treatment group. Body weight was monitored for each individual animal. % BW loss=100*(BW on Day n−BW on Day 1)/(BW on Day 1). […] The area under the curve for body weight loss (%) from 0 until 8 days (AUG ΔBW 0-8d) was calculated.
# [3] = tested on: db/db mice; assay: Non-fasting glucose in db/db mice after single s.c. dose; type: in vivo
# Experimental: Method: 10 weeks old male db/db mice were injected subcutaneously with GLP-1 polypeptide conjugate once. […] Delta blood glucose is glucose subtracted by baseline level. […] The area under the curve for delta blood glucose from 0 until 192 hours (AUCΔBG 0-192h) was calculated.
# [4] = molecular target: human serum albumin (Homo sapiens, UniProt P02768); assay: Human serum albumin binding by surface plasmon resonance (Biacore 8K); conditions: human serum albumin on CM5 chip, SPR
# Experimental: Method: Binding of molecules to serum albumin was characterized by surface plasmon resonance in a Biacore 8K instrument. Serum albumin from different species was covalently bound to CM5 sensor chips surface until 4000 RU was reached. The chip was blocked by 1M ethanolamine with flowrate of 10 μL/min for 420 s. Each molecule sample was diluted and injected at a flow rate of 30 μL/min to allow for binding to chip-bound albumin for 120 s and for dissociation for 300 s. Binding buffer without molecule was sent over the chip at the flow rate of 20 seconds to allow spontaneous dissociation of bound molecule for 30 seconds.
# [5] = molecular target: T1, human serum albumin (human, UniProt P02768 25-609); assay: SPR (Biacore 8K), albumin on CM5 chip
# T1 construct: also called HSA
# Sequence of GLP-1 receptor (P43220 24-463, species assumed): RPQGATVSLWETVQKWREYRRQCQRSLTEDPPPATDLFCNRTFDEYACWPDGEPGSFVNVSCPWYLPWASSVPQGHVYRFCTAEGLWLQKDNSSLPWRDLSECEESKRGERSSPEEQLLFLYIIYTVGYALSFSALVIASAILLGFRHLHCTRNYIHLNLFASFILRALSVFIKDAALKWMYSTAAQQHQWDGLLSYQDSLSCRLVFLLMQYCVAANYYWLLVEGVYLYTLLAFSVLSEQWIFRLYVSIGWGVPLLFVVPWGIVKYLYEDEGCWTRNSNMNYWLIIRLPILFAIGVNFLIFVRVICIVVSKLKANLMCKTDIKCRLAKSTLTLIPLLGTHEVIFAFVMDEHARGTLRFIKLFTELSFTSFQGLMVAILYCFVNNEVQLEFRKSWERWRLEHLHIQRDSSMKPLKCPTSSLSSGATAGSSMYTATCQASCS
molecule,measurement,setting,value
semaglutide,loss in GLP-1 receptor binding in presence of human serum albumin (HSA) relative to its unconjugated counterpart,[1],939 fold
same,AUC ΔBW 0-8 d (day*%),[2]; Study 1 (FIG. 1A),−9.3 day*%
same,AUC ΔBW 0-8 d (day*%),[2]; Study 2 (FIG. 1B),−13.2 day*%
same,AUC ΔBG 0-192 h,[3]; 3 nmol/kg s.c. once,-317.0 mmol·h/L
same,AUC ΔBG 0-192 h,[3]; 10 nmol/kg s.c. once,-583.4 mmol·h/L
same,AUC ΔBG 0-192 h,[3]; 30 nmol/kg s.c. once,-527.1 mmol·h/L
same,Rmax (RU),[4],55.2 RU
B1,binding result,[5],binds
B2,binding result,[5],binds
B3,binding result,[5],binds
